Measured values: the supplement of paper PMC10307832

Experiments:
Test in all cases: relative viability (nuclei count vs DMSO), 5 days (fraction); higher = more cells survive
COR-L23 = system: COR-L23
Procedure, shortened: (§1)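 The day after seeding in 1536-well plates, lung cancer cell lines were treated by pin tool with a single drug, or with a fixed anchor-drug dose together with five library-drug doses (not always all listed) in √10 steps. After 5 days, a combined fix-and-stain solution (final 0.05% Triton X-100, 1% formaldehyde, 1 ug/ml Hoechst) was added. Nuclei counted on 4× images gave relative viability as treated counts over vehicle counts, reported as the median of duplicate plates.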

SK-MES-1 = system: SK-MES-1
Procedure, shortened: as §1

HOP-62 = system: HOP-62
Procedure, shortened: as §1

NCI-H358 = system: NCI-H358
Procedure, shortened: as §1

NCI-H1993 = system: NCI-H1993
Procedure, shortened: as §1

NCI-H522 = system: NCI-H522
Procedure, shortened: as §1

NCI-H322M = system: NCI-H322M
Procedure, shortened: as §1

NCI-H2347 = system: NCI-H2347
Procedure, shortened: as §1

NCI-H1355 = system: NCI-H1355
Procedure, shortened: as §1

NCI-H2009 = system: NCI-H2009
Procedure, shortened: as §1

NCI-H2170 = system: NCI-H2170
Procedure, shortened: as §1

COR-L 105 = system: COR-L 105
Procedure, shortened: as §1

NCI-H838 = system: NCI-H838
Procedure, shortened: as §1

NCI-H1755 = system: NCI-H1755
Procedure, shortened: as §1

NCI-H1793 = system: NCI-H1793
Procedure, shortened: as §1

PC-14 = system: PC-14
Procedure, shortened: as §1

NCI-H2342 = system: NCI-H2342
Procedure, shortened: as §1

HARA = system: HARA
Procedure, shortened: as §1

EKVX = system: EKVX
Procedure, shortened: as §1

UMC-11 = system: UMC-11
Procedure, shortened: as §1

NCI-H647 = system: NCI-H647
Procedure, shortened: as §1

NCI-H1734 = system: NCI-H1734
Procedure, shortened: as §1

NCI-H1395 = system: NCI-H1395
Procedure, shortened: as §1

NCI-H2228 = system: NCI-H2228
Procedure, shortened: as §1

SMILES: Clc1ccc(Nc2nnc(Cc3ccncc3)c3ccccc23)cc1 [Vatalanib] + O=C(c1cc(Cc2n[nH]c(=O)c3ccccc23)ccc1F)N1CCN(C(=O)C2CC2)CC1 [Olaparib] (partner 8 µM)
- relative viability (COR-L23; first compound 0.04 µM): 0.363
- relative viability (COR-L23; first compound 0.1265 µM): 0.356
- relative viability (COR-L23; first compound 0.4 µM): 0.402
- relative viability (COR-L23; first compound 1.265 µM): 0.337
- relative viability (COR-L23; first compound 4 µM): 0.345
- relative viability (SK-MES-1; first compound 0.04 µM): 0.608
- relative viability (SK-MES-1; first compound 0.1265 µM): 0.71
- relative viability (SK-MES-1; first compound 0.4 µM): 0.821
- relative viability (SK-MES-1; first compound 1.265 µM): 0.61
- relative viability (SK-MES-1; first compound 4 µM): 0.627
- relative viability (HOP-62; first compound 0.04 µM): 0.385
- relative viability (HOP-62; first compound 0.1265 µM): 0.389
- relative viability (HOP-62; first compound 0.4 µM): 0.523
- relative viability (HOP-62; first compound 1.265 µM): 0.41
- relative viability (HOP-62; first compound 4 µM): 0.419
- relative viability (NCI-H358; first compound 0.04 µM): 0.566
- relative viability (NCI-H358; first compound 0.1265 µM): 0.548
- relative viability (NCI-H358; first compound 0.4 µM): 0.639
- relative viability (NCI-H358; first compound 1.265 µM): 0.769
- relative viability (NCI-H358; first compound 4 µM): 0.562
- relative viability (NCI-H1993; first compound 0.04 µM): 0.587
- relative viability (NCI-H1993; first compound 0.1265 µM): 1.08
- relative viability (NCI-H1993; first compound 0.4 µM): 0.879
- relative viability (NCI-H1993; first compound 1.265 µM): 1.11
- relative viability (NCI-H1993; first compound 4 µM): 1.01
- relative viability (NCI-H522; first compound 0.04 µM): 0.756
- relative viability (NCI-H522; first compound 0.1265 µM): 0.705
- relative viability (NCI-H522; first compound 0.4 µM): 0.746
- relative viability (NCI-H522; first compound 1.265 µM): 0.565
- relative viability (NCI-H522; first compound 4 µM): 0.774
- relative viability (NCI-H322M; first compound 0.04 µM): 0.452
- relative viability (NCI-H322M; first compound 0.1265 µM): 0.662
- relative viability (NCI-H322M; first compound 0.4 µM): 0.781
- relative viability (NCI-H322M; first compound 4 µM): 0.778
- relative viability (NCI-H2347; first compound 0.04 µM): 0.647
- relative viability (NCI-H2347; first compound 0.1265 µM): 0.538
- relative viability (NCI-H2347; first compound 0.4 µM): 0.643
- relative viability (NCI-H2347; first compound 1.265 µM): 0.623
- relative viability (NCI-H2347; first compound 4 µM): 0.597
- relative viability (NCI-H1355; first compound 0.04 µM): 0.732
- relative viability (NCI-H1355; first compound 0.1265 µM): 0.79
- relative viability (NCI-H1355; first compound 0.4 µM): 0.809
- relative viability (NCI-H1355; first compound 1.265 µM): 0.699
- relative viability (NCI-H1355; first compound 4 µM): 0.706
- relative viability (NCI-H2009; first compound 0.04 µM): 0.703
- relative viability (NCI-H2009; first compound 0.1265 µM): 0.623
- relative viability (NCI-H2009; first compound 0.4 µM): 0.675
- relative viability (NCI-H2009; first compound 1.265 µM): 0.672
- relative viability (NCI-H2009; first compound 4 µM): 0.594
- relative viability (NCI-H2170; first compound 0.04 µM): 0.623
- relative viability (NCI-H2170; first compound 0.1265 µM): 0.656
- relative viability (NCI-H2170; first compound 0.4 µM): 0.702
- relative viability (NCI-H2170; first compound 1.265 µM): 0.512
- relative viability (NCI-H2170; first compound 4 µM): 0.556
- relative viability (COR-L 105; first compound 0.04 µM): 0.719
- relative viability (COR-L 105; first compound 0.1265 µM): 0.762
- relative viability (COR-L 105; first compound 0.4 µM): 0.738
- relative viability (COR-L 105; first compound 1.265 µM): 0.645
- relative viability (COR-L 105; first compound 4 µM): 0.703
- relative viability (NCI-H838; first compound 0.04 µM): 0.774
- relative viability (NCI-H838; first compound 0.1265 µM): 0.741
- relative viability (NCI-H838; first compound 0.4 µM): 0.824
- relative viability (NCI-H838; first compound 1.265 µM): 0.722
- relative viability (NCI-H838; first compound 4 µM): 0.702
- relative viability (NCI-H1755; first compound 0.04 µM): 0.773
- relative viability (NCI-H1755; first compound 0.1265 µM): 0.847
- relative viability (NCI-H1755; first compound 0.4 µM): 0.878
- relative viability (NCI-H1755; first compound 1.265 µM): 0.901
- relative viability (NCI-H1755; first compound 4 µM): 0.838
- relative viability (NCI-H1793; first compound 0.04 µM): 0.871
- relative viability (NCI-H1793; first compound 0.1265 µM): 0.713
- relative viability (NCI-H1793; first compound 0.4 µM): 1.02
- relative viability (NCI-H1793; first compound 1.265 µM): 0.788
- relative viability (NCI-H1793; first compound 4 µM): 0.78
- relative viability (PC-14; first compound 0.04 µM): 0.192
- relative viability (PC-14; first compound 0.1265 µM): 0.195
- relative viability (PC-14; first compound 0.4 µM): 0.295
- relative viability (PC-14; first compound 1.265 µM): 0.276
- relative viability (PC-14; first compound 4 µM): 0.309
- relative viability (NCI-H2342; first compound 0.04 µM): 0.397
- relative viability (NCI-H2342; first compound 0.1265 µM): 0.452
- relative viability (NCI-H2342; first compound 0.4 µM): 0.461
- relative viability (NCI-H2342; first compound 1.265 µM): 0.365
- relative viability (NCI-H2342; first compound 4 µM): 0.471
- relative viability (HARA; first compound 0.04 µM): 0.713
- relative viability (HARA; first compound 0.1265 µM): 0.725
- relative viability (HARA; first compound 0.4 µM): 0.875
- relative viability (HARA; first compound 1.265 µM): 0.97
- relative viability (HARA; first compound 4 µM): 0.823
- relative viability (EKVX; first compound 0.04 µM): 0.955
- relative viability (EKVX; first compound 0.1265 µM): 0.885
- relative viability (EKVX; first compound 0.4 µM): 0.851
- relative viability (EKVX; first compound 1.265 µM): 0.66
- relative viability (EKVX; first compound 4 µM): 0.756
- relative viability (UMC-11; first compound 0.04 µM): 0.331
- relative viability (UMC-11; first compound 0.1265 µM): 0.39
- relative viability (UMC-11; first compound 0.4 µM): 0.318
- relative viability (UMC-11; first compound 1.265 µM): 0.468
- relative viability (UMC-11; first compound 4 µM): 0.297
- relative viability (NCI-H647; first compound 0.04 µM): 0.612
- relative viability (NCI-H647; first compound 0.1265 µM): 0.582
- relative viability (NCI-H647; first compound 0.4 µM): 0.582
- relative viability (NCI-H647; first compound 1.265 µM): 0.584
- relative viability (NCI-H647; first compound 4 µM): 0.531
- relative viability (NCI-H1734; first compound 0.04 µM): 0.64
- relative viability (NCI-H1734; first compound 0.1265 µM): 0.582
- relative viability (NCI-H1734; first compound 0.4 µM): 0.621
- relative viability (NCI-H1734; first compound 1.265 µM): 0.609
- relative viability (NCI-H1734; first compound 4 µM): 0.617
- relative viability (NCI-H1395; first compound 0.04 µM): 0.448
- relative viability (NCI-H1395; first compound 0.1265 µM): 0.456
- relative viability (NCI-H1395; first compound 0.4 µM): 0.489
- relative viability (NCI-H1395; first compound 4 µM): 0.437
- relative viability (NCI-H2228; first compound 0.04 µM): 0.648
- relative viability (NCI-H2228; first compound 0.1265 µM): 0.772
- relative viability (NCI-H2228; first compound 0.4 µM): 0.816
- relative viability (NCI-H2228; first compound 1.265 µM): 0.654
- relative viability (NCI-H2228; first compound 4 µM): 0.598
